In the NIST ThermoML archive (doi:10.1021/acs.jced.5b00623):
“And” between values parts separate entries of the source, which are not always exact repeats. Identical values can stand only once. Numbers after ± are expanded uncertainties.

Settings: for vapor or sublimation pressure: Closed cell (Static) method

`O=C(C(F)(F)C(F)(F)F)C(F)(C(F)(F)F)C(F)(F)F` [dodecafluoro-2-methylpentan-3-one] gave a mass density (225.01 K, 992.5 kPa, Liquid, Buoyancy - hydrostatic balance with magnetic suspension - two sinkers) of 1809.67 ± 0.23 kg/m3, a mass density (225.01 K, 6306.6 kPa, Liquid, Buoyancy - hydrostatic balance with magnetic suspension - two sinkers) of 1821.02 ± 0.23 kg/m3 and a mass density (235 K, 11155 kPa, Liquid, Buoyancy - hydrostatic balance with magnetic suspension - two sinkers) of 1806.22 ± 0.23 kg/m3. The mass density (240 K, 16200 kPa, Liquid, Buoyancy - hydrostatic balance with magnetic suspension - two sinkers) was 1804.64 ± 0.23 kg/m3, the mass density (245 K, 21227 kPa, Liquid, Buoyancy - hydrostatic balance with magnetic suspension - two sinkers) was 1803.18 ± 0.23 kg/m3 and the mass density (250 K, 26208 kPa, Liquid, Buoyancy - hydrostatic balance with magnetic suspension - two sinkers) was 1801.77 ± 0.23 kg/m3. The mass density (260 K, 1145.1 kPa, Liquid, Buoyancy - hydrostatic balance with magnetic suspension - two sinkers) was 1716.09 ± 0.21 kg/m3, the mass density (260 K, 6242.2 kPa, Liquid, Buoyancy - hydrostatic balance with magnetic suspension - two sinkers) was 1731.21 ± 0.21 kg/m3 and the mass density (260 K, 12122 kPa, Liquid, Buoyancy - hydrostatic balance with magnetic suspension - two sinkers) was 1746.98 ± 0.22 kg/m3. It also gave a mass density (260 K, 18392 kPa, Liquid, Buoyancy - hydrostatic balance with magnetic suspension - two sinkers) of 1762.27 ± 0.22 kg/m3, a mass density (260 K, 27930 kPa, Liquid, Buoyancy - hydrostatic balance with magnetic suspension - two sinkers) of 1783.14 ± 0.23 kg/m3 and a mass density (260 K, 36060 kPa, Liquid, Buoyancy - hydrostatic balance with magnetic suspension - two sinkers) of 1799.13 ± 0.24 kg/m3. The mass density (270 K, 8922.2 kPa, Liquid, Buoyancy - hydrostatic balance with magnetic suspension - two sinkers) was 1713.2 ± 0.21 kg/m3, the mass density (275 K, 12791 kPa, Liquid, Buoyancy - hydrostatic balance with magnetic suspension - two sinkers) was 1711.88 ± 0.21 kg/m3 and the speed of sound (278.15 K, 83 kPa, Liquid, Frequency=3 MHz, Sing-around technique in a fixed-path interferometer) was 567.88 ± 0.89 m/s. For the same molecule, the mass density (278.15 K, 83 kPa, Liquid, Vibrating tube method) was 1660.83 ± 0.49 kg/m3, the mass density (280 K, 16636 kPa, Liquid, Buoyancy - hydrostatic balance with magnetic suspension - two sinkers) was 1710.6 ± 0.21 kg/m3 and the speed of sound (283.15 K, 83 kPa, Liquid, Frequency=3 MHz, Sing-around technique in a fixed-path interferometer) was 551.54 ± 0.89 m/s. The mass density (283.15 K, 83 kPa, Liquid, Vibrating tube method) was 1646.79 ± 0.49 kg/m3, the mass density (285 K, 20456 kPa, Liquid, Buoyancy - hydrostatic balance with magnetic suspension - two sinkers) was 1709.38 ± 0.21 kg/m3 and the speed of sound (288.15 K, 83 kPa, Liquid, Frequency=3 MHz, Sing-around technique in a fixed-path interferometer) was 535.45 ± 0.88 m/s. For the same molecule, the mass density (288.15 K, 83 kPa, Liquid, Vibrating tube method) was 1632.33 ± 0.47 kg/m3, the mass density (290 K, 24255 kPa, Liquid, Buoyancy - hydrostatic balance with magnetic suspension - two sinkers) was 1708.2 ± 0.22 kg/m3 and the speed of sound (293.15 K, 83 kPa, Liquid, Frequency=3 MHz, Sing-around technique in a fixed-path interferometer) was 519.58 ± 0.88 m/s. For the same molecule, the mass density (293.15 K, 83 kPa, Liquid, Vibrating tube method) was 1617.51 ± 0.46 kg/m3, the mass density (295 K, 28026 kPa, Liquid, Buoyancy - hydrostatic balance with magnetic suspension - two sinkers) was 1707.06 ± 0.22 kg/m3 and the speed of sound (298.15 K, 83 kPa, Liquid, Frequency=3 MHz, Sing-around technique in a fixed-path interferometer) was 503.72 ± 0.88 m/s. The mass density (298.15 K, 83 kPa, Liquid, Vibrating tube method) was 1602.48 ± 0.46 kg/m3, the mass density (303 K, 1007.3 kPa, Liquid, Buoyancy - hydrostatic balance with magnetic suspension - two sinkers) was 1592.53 ± 0.23 kg/m3 and the mass density (303 K, 1089 kPa, Liquid, Buoyancy - hydrostatic balance with magnetic suspension - two sinkers) was 1592.94 ± 0.22 kg/m3. It also gave a mass density (303 K, 5959.8 kPa, Liquid, Buoyancy - hydrostatic balance with magnetic suspension - two sinkers) of 1615.54 ± 0.22 kg/m3, a mass density (303 K, 6069.2 kPa, Liquid, Buoyancy - hydrostatic balance with magnetic suspension - two sinkers) of 1616.01 ± 0.2 kg/m3 and a mass density (303 K, 12121 kPa, Liquid, Buoyancy - hydrostatic balance with magnetic suspension - two sinkers) of 1639.93 ± 0.2 kg/m3. The mass density (303 K, 22348 kPa, Liquid, Buoyancy - hydrostatic balance with magnetic suspension - two sinkers) was 1673.62 ± 0.21 kg/m3, the mass density (303 K, 28346 kPa, Liquid, Buoyancy - hydrostatic balance with magnetic suspension - two sinkers) was 1690.63 ± 0.22 kg/m3 and the mass density (303 K, 33973 kPa, Liquid, Buoyancy - hydrostatic balance with magnetic suspension - two sinkers) was 1705.21 ± 0.22 kg/m3. For the same molecule, the speed of sound (303.15 K, 83 kPa, Liquid, Frequency=3 MHz, Sing-around technique in a fixed-path interferometer) was 488.11 ± 0.87 m/s, the mass density (303.15 K, 83 kPa, Liquid, Vibrating tube method) was 1587.28 ± 0.46 kg/m3 and the speed of sound (308.15 K, 83 kPa, Liquid, Frequency=3 MHz, Sing-around technique in a fixed-path interferometer) was 472.63 ± 0.87 m/s. It also gave a mass density (308.15 K, 83 kPa, Liquid, Vibrating tube method) of 1571.82 ± 0.46 kg/m3, a mass density (310 K, 4843.5 kPa, Liquid, Buoyancy - hydrostatic balance with magnetic suspension - two sinkers) of 1590.92 ± 0.2 kg/m3 and a mass density (318 K, 9214.8 kPa, Liquid, Buoyancy - hydrostatic balance with magnetic suspension - two sinkers) of 1589.2 ± 0.2 kg/m3. For the same molecule, the mass density (318 K, 9295.7 kPa, Liquid, Buoyancy - hydrostatic balance with magnetic suspension - two sinkers) was 1589.59 ± 0.2 kg/m3, the “vapor or sublimation pressure” value (324.96 K, Liquid) was 111.4 ± 1.3 kPa and 111.4 ± 1.4 kPa and the speed of sound (324.97 K, 65.34 kPa, Gas, Spherical resonator) was 90.45 ± 0.19 m/s. It also gave a speed of sound (324.97 K, 82.58 kPa, Gas, Spherical resonator) of 89.49 ± 0.19 m/s, a speed of sound (324.97 K, 100.55 kPa, Gas, Spherical resonator) of 88.41 ± 0.19 m/s and a speed of sound (324.97 K, 100.57 kPa, Gas, Spherical resonator) of 88.41 ± 0.19 m/s. For the same molecule, the speed of sound (324.97 K, 100.58 kPa, Gas, Spherical resonator) was 88.41 ± 0.19 m/s, the “vapor or sublimation pressure” value (324.97 K, Liquid) was 111.4 ± 1.4 kPa and 111.3 ± 1.4 kPa and the “vapor or sublimation pressure” value (324.98 K, Liquid) was 111.6 ± 1.3 kPa. For the same molecule, the mass density (326.01 K, 13558 kPa, Liquid, Buoyancy - hydrostatic balance with magnetic suspension - two sinkers) was 1587.57 ± 0.2 kg/m3, the mass density (334.01 K, 17866 kPa, Liquid, Buoyancy - hydrostatic balance with magnetic suspension - two sinkers) was 1585.99 ± 0.2 kg/m3 and the mass density (334.02 K, 17984 kPa, Liquid, Buoyancy - hydrostatic balance with magnetic suspension - two sinkers) was 1586.44 ± 0.2 kg/m3. For the same molecule, the “vapor or sublimation pressure” value (339.95 K, Liquid) was 180.3 ± 1.4 kPa, the mass density (340 K, 1091.8 kPa, Liquid, Buoyancy - hydrostatic balance with magnetic suspension - two sinkers) was 1474.85 ± 0.18 kg/m3 and the mass density (340 K, 4035.6 kPa, Liquid, Buoyancy - hydrostatic balance with magnetic suspension - two sinkers) was 1497.23 ± 0.19 kg/m3. It also gave a mass density (340 K, 7986.5 kPa, Liquid, Buoyancy - hydrostatic balance with magnetic suspension - two sinkers) of 1522.5 ± 0.19 kg/m3, a mass density (340 K, 11938 kPa, Liquid, Buoyancy - hydrostatic balance with magnetic suspension - two sinkers) of 1544.06 ± 0.19 kg/m3 and a mass density (340 K, 16171 kPa, Liquid, Buoyancy - hydrostatic balance with magnetic suspension - two sinkers) of 1564.25 ± 0.2 kg/m3. The mass density (340 K, 21184 kPa, Liquid, Buoyancy - hydrostatic balance with magnetic suspension - two sinkers) was 1585.31 ± 0.2 kg/m3, the mass density (342.01 K, 22145 kPa, Liquid, Buoyancy - hydrostatic balance with magnetic suspension - two sinkers) was 1584.49 ± 0.2 kg/m3 and the speed of sound (349.97 K, 150.02 kPa, Gas, Spherical resonator) was 90.93 ± 0.19 m/s. The speed of sound (349.97 K, 191.77 kPa, Gas, Spherical resonator) was 88.85 ± 0.19 m/s, the speed of sound (349.98 K, 61.83 kPa, Gas, Spherical resonator) was 94.86 ± 0.2 m/s and the speed of sound (349.98 K, 106.24 kPa, Gas, Spherical resonator) was 92.93 ± 0.19 m/s. For the same molecule, the “vapor or sublimation pressure” value (349.99 K, Liquid) was 242.7 ± 1.4 kPa, the speed of sound (350 K, 53.94 kPa, Gas, Spherical resonator) was 95.2 ± 0.2 m/s and the speed of sound (350 K, 104.66 kPa, Gas, Spherical resonator) was 93 ± 0.19 m/s. It also gave a speed of sound (350 K, 152.11 kPa, Gas, Spherical resonator) of 90.82 ± 0.19 m/s, a speed of sound (350 K, 191.03 kPa, Gas, Spherical resonator) of 88.88 ± 0.19 m/s and a mass density (350 K, 26385 kPa, Liquid, Buoyancy - hydrostatic balance with magnetic suspension - two sinkers) of 1583.04 ± 0.2 kg/m3. The “vapor or sublimation pressure” value (354.98 K, Liquid) was 278.7 ± 1.4 kPa, the mass density (360 K, 1009.8 kPa, Liquid, Buoyancy - hydrostatic balance with magnetic suspension - two sinkers) was 1401.62 ± 0.18 kg/m3 and the mass density (360 K, 6002.5 kPa, Liquid, Buoyancy - hydrostatic balance with magnetic suspension - two sinkers) was 1449.57 ± 0.18 kg/m3. For the same molecule, the mass density (360 K, 8915.5 kPa, Liquid, Buoyancy - hydrostatic balance with magnetic suspension - two sinkers) was 1471.34 ± 0.19 kg/m3, the mass density (360 K, 11021 kPa, Liquid, Buoyancy - hydrostatic balance with magnetic suspension - two sinkers) was 1485.32 ± 0.19 kg/m3 and the mass density (360 K, 16073 kPa, Liquid, Buoyancy - hydrostatic balance with magnetic suspension - two sinkers) was 1514.43 ± 0.19 kg/m3. The mass density (360 K, 21146 kPa, Liquid, Buoyancy - hydrostatic balance with magnetic suspension - two sinkers) was 1539.18 ± 0.2 kg/m3, the mass density (360 K, 31620 kPa, Liquid, Buoyancy - hydrostatic balance with magnetic suspension - two sinkers) was 1581.19 ± 0.21 kg/m3 and the mass density (370 K, 4182.9 kPa, Liquid, Buoyancy - hydrostatic balance with magnetic suspension - two sinkers) was 1400.06 ± 0.18 kg/m3. For the same molecule, the “vapor or sublimation pressure” value (370 K, Liquid) was 413.4 ± 1.5 kPa, the “vapor or sublimation pressure” value (374.99 K, Liquid) was 467.9 ± 1.6 kPa and 467.6 ± 1.6 kPa and the speed of sound (375.01 K, 57.06 kPa, Gas, Spherical resonator) was 98.91 ± 0.2 m/s. The speed of sound (375.01 K, 123.45 kPa, Gas, Spherical resonator) was 96.64 ± 0.2 m/s, the speed of sound (375.01 K, 220.4 kPa, Gas, Spherical resonator) was 93.07 ± 0.19 m/s and the speed of sound (375.01 K, 316.42 kPa, Gas, Spherical resonator) was 89.11 ± 0.19 m/s. For the same molecule, the mass density (380 K, 7353.3 kPa, Liquid, Buoyancy - hydrostatic balance with magnetic suspension - two sinkers) was 1398.51 ± 0.18 kg/m3, the mass density (380.04 K, 16688 kPa, Liquid, Buoyancy - hydrostatic balance with magnetic suspension - two sinkers) was 1468.1 ± 0.19 kg/m3 and the mass density (385.99 K, 9254.1 kPa, Liquid, Buoyancy - hydrostatic balance with magnetic suspension - two sinkers) was 1397.63 ± 0.18 kg/m3. The “vapor or sublimation pressure” value (390.03 K, Liquid) was 663.7 ± 1.8 kPa, the mass density (393.98 K, 11788 kPa, Liquid, Buoyancy - hydrostatic balance with magnetic suspension - two sinkers) was 1396.48 ± 0.18 kg/m3 and the mass density (400 K, 2018.5 kPa, Liquid, Buoyancy - hydrostatic balance with magnetic suspension - two sinkers) was 1244.05 ± 0.17 kg/m3. It also gave a mass density (400 K, 3987.4 kPa, Liquid, Buoyancy - hydrostatic balance with magnetic suspension - two sinkers) of 1284.55 ± 0.17 kg/m3, a mass density (400 K, 8129.1 kPa, Liquid, Buoyancy - hydrostatic balance with magnetic suspension - two sinkers) of 1342.48 ± 0.18 kg/m3 and a mass density (400.01 K, 11999 kPa, Liquid, Buoyancy - hydrostatic balance with magnetic suspension - two sinkers) of 1381.28 ± 0.18 kg/m3.
